The kinase profiling compilation of Christmann-Franck et al. (2016)

Legend:
Test in all cases: radiometric filter-binding kinase assay, Kinase HotSpot
Conditions in all cases: compound 0.5 µM; ATP 10 µM
ABL1 (human) = ABL1 (human) (UniProt P00519)
ACVRL1 (human) = ACVRL1 (human) (UniProt P37023)
AKT1 (human) = AKT1 (human) (UniProt P31749)
AURKC (human) = AURKC (human) (UniProt Q9UQB9)
CDC42BPA (human) = CDC42BPA (human) (UniProt Q5VT25)
CDK6 CCND3 (human) = CDK6 CCND3 (human) (UniProt P30281+Q00534)
CDK9 CCNK (human) = CDK9 CCNK (human) (UniProt O75909+P50750)
CHUK (human) = CHUK (human) (UniProt O15111)
CSK (human) = CSK (human) (UniProt P41240)
CSNK1G2 (human) = CSNK1G2 (human) (UniProt P78368)
CSNK2A1 (human) = CSNK2A1 (human) (UniProt P68400)
DCLK2 (human) = DCLK2 (human) (UniProt Q8N568)
DYRK1B (human) = DYRK1B (human) (UniProt Q9Y463)
DYRK2 (human) = DYRK2 (human) (UniProt Q92630)
EGFR (human) = EGFR (human) (UniProt P00533)
EPHA1 (human) = EPHA1 (human) (UniProt P21709)
FGR (human) = FGR (human) (UniProt P09769)
GRK6 (human) = GRK6 (human) (UniProt P43250)
HIPK1 (human) = HIPK1 (human) (UniProt Q86Z02)
Sequence of HIPK1 (human) (Q86Z02 whole entry, looked up): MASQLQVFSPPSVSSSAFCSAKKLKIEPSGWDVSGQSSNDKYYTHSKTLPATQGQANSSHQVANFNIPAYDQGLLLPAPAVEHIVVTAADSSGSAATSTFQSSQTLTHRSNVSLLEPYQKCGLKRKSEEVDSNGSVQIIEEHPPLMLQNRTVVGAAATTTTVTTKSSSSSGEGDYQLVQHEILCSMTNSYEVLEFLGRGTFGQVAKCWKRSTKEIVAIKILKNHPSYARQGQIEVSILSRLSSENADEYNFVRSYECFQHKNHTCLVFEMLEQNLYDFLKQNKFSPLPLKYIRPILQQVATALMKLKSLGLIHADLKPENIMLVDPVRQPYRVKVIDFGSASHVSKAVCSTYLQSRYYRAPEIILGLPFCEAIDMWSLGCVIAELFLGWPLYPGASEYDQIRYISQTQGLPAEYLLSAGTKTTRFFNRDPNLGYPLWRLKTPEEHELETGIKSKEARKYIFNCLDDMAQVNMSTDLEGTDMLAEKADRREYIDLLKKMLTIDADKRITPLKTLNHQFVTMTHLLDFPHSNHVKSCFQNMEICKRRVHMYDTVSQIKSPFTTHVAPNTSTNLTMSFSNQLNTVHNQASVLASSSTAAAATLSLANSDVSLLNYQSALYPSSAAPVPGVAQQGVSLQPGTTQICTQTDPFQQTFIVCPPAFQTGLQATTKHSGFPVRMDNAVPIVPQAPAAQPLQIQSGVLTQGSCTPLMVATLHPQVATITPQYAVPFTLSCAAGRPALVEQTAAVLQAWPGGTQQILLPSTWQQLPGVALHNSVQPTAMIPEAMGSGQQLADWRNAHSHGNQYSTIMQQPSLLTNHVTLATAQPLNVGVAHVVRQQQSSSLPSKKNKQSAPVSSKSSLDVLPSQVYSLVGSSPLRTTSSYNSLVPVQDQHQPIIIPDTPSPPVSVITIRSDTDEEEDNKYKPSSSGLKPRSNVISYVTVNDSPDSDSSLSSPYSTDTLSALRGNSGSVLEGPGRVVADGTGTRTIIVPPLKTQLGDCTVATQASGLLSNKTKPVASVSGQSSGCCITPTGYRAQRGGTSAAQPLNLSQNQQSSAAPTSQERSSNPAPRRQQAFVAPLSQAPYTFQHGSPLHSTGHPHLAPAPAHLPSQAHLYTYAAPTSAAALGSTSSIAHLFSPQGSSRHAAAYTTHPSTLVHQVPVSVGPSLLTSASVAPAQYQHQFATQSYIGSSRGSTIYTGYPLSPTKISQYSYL

IRAK1 (human) = IRAK1 (human) (UniProt P51617)
[1] = molecular target: JAK1 JH1 catalytic (human) (UniProt P23458)
JAK2 JH1 JH2 (human) = JAK2 JH1 JH2 (human) (UniProt O60674)
LTK (human) = LTK (human) (UniProt P29376)
MAP4K2 (human) = MAP4K2 (human) (UniProt Q12851)
MARK1 (human) = MARK1 (human) (UniProt Q9P0L2)
Sequence of MARK1 (human) (Q9P0L2 whole entry, looked up): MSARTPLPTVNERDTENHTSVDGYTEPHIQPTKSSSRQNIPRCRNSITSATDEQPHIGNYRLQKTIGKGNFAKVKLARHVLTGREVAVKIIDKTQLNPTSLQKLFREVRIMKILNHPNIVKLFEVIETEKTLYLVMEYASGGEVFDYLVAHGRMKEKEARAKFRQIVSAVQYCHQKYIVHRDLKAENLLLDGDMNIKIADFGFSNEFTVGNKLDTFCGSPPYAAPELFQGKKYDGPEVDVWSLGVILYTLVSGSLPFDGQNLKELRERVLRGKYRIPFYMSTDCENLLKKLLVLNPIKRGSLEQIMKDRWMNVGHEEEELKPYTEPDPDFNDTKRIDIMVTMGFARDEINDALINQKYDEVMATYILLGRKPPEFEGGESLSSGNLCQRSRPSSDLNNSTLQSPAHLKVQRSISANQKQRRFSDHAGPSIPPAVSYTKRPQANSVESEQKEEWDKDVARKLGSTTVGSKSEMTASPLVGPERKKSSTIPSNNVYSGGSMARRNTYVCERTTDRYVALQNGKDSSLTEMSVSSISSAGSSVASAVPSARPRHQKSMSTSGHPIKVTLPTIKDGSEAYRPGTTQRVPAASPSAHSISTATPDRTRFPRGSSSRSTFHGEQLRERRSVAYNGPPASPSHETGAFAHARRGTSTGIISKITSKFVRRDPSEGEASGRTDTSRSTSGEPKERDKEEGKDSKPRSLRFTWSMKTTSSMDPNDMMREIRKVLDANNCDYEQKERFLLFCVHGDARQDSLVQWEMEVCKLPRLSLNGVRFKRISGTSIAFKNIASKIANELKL

MST4 (human) = MST4 (human) (UniProt Q9P289)
PDGFRA (human) = PDGFRA (human) (UniProt P16234)
PDPK1 (human) = PDPK1 (human) (UniProt O15530)
PKN1 (human) = PKN1 (human) (UniProt Q16512)
PNCK (human) = PNCK (human) (UniProt Q6P2M8)
PRKCI (human) = PRKCI (human) (UniProt P41743)
PRKCZ (human) = PRKCZ (human) (UniProt Q05513)
PRKX (human) = PRKX (human) (UniProt P51817)
PTK2B (human) = PTK2B (human) (UniProt Q14289)
RET (human) = RET (human) (UniProt P07949)
SLK (human) = SLK (human) (UniProt Q9H2G2)
Sequence of SLK (human) (Q9H2G2 whole entry, looked up): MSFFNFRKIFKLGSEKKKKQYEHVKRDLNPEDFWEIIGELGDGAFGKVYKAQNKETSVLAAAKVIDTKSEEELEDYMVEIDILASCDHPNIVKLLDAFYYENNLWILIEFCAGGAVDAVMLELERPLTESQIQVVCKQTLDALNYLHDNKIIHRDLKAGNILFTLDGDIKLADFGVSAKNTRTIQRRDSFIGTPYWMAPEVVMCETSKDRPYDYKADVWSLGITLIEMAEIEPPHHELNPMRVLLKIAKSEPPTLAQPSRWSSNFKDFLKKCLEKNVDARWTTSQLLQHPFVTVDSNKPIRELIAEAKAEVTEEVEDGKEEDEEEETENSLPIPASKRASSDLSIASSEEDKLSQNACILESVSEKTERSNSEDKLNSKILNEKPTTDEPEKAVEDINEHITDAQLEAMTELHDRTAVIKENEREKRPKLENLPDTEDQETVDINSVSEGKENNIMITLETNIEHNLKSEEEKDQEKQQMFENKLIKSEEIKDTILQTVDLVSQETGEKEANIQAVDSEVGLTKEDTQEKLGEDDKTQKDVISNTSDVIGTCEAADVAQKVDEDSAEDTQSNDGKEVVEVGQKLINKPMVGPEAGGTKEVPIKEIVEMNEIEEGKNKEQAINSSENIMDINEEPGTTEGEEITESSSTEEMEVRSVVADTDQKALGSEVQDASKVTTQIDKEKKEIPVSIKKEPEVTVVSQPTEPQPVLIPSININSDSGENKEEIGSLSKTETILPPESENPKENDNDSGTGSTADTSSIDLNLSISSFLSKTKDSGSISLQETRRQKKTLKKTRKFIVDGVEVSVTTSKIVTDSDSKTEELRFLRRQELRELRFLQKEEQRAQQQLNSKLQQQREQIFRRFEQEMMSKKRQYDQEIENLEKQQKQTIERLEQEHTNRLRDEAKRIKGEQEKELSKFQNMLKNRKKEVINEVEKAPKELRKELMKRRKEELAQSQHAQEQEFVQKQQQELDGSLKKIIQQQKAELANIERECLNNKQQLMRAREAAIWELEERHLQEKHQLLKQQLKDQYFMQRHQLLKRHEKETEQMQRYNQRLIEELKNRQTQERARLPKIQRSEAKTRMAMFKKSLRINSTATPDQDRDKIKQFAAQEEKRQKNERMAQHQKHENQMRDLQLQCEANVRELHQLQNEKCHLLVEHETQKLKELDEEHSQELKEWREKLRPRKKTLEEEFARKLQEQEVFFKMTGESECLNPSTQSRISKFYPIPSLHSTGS

SRMS (human) = SRMS (human) (UniProt Q9H3Y6)
SRPK3 (human) = SRPK3 (human) (UniProt Q9UPE1)
STK3 (human) = STK3 (human) (UniProt Q13188)
STK38 (human) = STK38 (human) (UniProt Q15208)
SYK (human) = SYK (human) (UniProt P43405)
WNK2 (human) = WNK2 (human) (UniProt Q9Y3S1)

Sequence of CDC42BPA (human) (Q5VT25 whole entry, looked up): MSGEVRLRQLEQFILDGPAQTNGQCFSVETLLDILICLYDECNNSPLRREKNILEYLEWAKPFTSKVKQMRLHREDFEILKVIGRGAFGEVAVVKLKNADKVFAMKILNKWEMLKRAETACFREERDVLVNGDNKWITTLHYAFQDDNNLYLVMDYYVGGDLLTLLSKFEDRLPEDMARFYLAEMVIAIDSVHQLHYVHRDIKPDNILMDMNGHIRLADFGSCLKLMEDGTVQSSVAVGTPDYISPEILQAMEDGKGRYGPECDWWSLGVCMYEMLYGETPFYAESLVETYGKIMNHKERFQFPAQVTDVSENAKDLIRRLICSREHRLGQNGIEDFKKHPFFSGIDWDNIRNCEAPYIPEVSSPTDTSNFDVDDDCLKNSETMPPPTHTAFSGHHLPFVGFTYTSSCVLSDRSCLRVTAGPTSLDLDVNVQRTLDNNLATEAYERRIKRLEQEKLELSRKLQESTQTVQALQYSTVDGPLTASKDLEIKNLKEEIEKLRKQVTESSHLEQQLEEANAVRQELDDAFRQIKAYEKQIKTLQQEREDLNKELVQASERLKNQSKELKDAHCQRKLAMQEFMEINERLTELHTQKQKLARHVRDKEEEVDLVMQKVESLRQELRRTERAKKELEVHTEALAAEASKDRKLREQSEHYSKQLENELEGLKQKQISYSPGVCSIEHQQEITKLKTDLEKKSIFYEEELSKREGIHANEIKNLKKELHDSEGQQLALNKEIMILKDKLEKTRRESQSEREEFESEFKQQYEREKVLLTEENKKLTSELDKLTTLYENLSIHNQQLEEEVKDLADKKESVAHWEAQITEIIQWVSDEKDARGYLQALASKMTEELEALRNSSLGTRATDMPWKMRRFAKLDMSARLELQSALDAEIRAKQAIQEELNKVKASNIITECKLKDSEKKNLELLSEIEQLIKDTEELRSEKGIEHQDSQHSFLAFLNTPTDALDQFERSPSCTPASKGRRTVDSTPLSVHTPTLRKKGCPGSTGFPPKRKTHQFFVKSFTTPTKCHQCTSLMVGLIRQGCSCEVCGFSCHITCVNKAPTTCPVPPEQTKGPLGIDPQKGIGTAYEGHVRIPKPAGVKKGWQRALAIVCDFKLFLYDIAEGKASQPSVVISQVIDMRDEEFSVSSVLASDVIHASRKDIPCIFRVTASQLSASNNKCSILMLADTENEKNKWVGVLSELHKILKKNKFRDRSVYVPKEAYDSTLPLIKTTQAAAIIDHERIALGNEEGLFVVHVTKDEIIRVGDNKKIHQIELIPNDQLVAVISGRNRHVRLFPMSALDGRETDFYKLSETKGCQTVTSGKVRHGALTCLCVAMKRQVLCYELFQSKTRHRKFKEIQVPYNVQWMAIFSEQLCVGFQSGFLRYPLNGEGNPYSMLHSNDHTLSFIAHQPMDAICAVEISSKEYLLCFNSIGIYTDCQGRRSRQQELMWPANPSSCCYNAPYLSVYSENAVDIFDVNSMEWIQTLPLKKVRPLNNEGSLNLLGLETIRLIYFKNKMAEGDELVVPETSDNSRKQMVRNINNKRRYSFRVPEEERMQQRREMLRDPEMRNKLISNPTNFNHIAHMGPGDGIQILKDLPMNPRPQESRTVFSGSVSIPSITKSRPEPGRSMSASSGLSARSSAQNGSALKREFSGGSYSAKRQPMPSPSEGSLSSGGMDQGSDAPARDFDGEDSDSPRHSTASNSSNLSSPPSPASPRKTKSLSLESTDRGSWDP

Question: How did the residual activity (ABL1 (human)) turn out when `O=C1NC(=O)C(c2cn(CCCn3ccnc3)c3ccccc23)=C1Nc1ccccc1` was run?
Answer: 96.1%

Question: And the residual activity (ACVRL1 (human))?
Answer: 95.9%

Question: And the residual activity (AKT1 (human))?
Answer: 101%

Question: And the residual activity (AURKC (human))?
Answer: 89.8%

Question: What about the residual activity (CDC42BPA (human)) of the same compound?
Answer: 95.2%

Question: What about the residual activity (CDK6 CCND3 (human)) of the same compound?
Answer: 104%

Question: And the residual activity (CDK9 CCNK (human))?
Answer: 64.6%

Question: What about the residual activity (CHUK (human)) of the same compound?
Answer: 105%

Question: And the residual activity (CSK (human))?
Answer: 110%

Question: What about the residual activity (CSNK1G2 (human)) of the same compound?
Answer: 95.4%

Question: And the residual activity (CSNK2A1 (human))?
Answer: 100%

Question: And the residual activity (DCLK2 (human))?
Answer: 96.3%

Question: And the residual activity (DYRK1B (human))?
Answer: 56.3%

Question: What about the residual activity (DYRK2 (human)) of the same compound?
Answer: 97.3%

Question: And the residual activity (EGFR (human))?
Answer: 95.1%

Question: And the residual activity (EPHA1 (human))?
Answer: 101%

Question: And the residual activity (FGR (human))?
Answer: 86.3%

Question: And the residual activity (GRK6 (human))?
Answer: 98.4%

Question: And the residual activity (HIPK1 (human))?
Answer: 102%

Question: What about the residual activity (IRAK1 (human)) of the same compound?
Answer: 118%

Question: What about the residual activity [1] of the same compound?
Answer: 82.1%

Question: What about the residual activity (JAK2 JH1 JH2 (human)) of the same compound?
Answer: 84.3%

Question: What about the residual activity (LTK (human)) of the same compound?
Answer: 93.4%

Question: And the residual activity (MAP4K2 (human))?
Answer: 85.7%

Question: And the residual activity (MARK1 (human))?
Answer: 93.6%

Question: What about the residual activity (MST4 (human)) of the same compound?
Answer: 22.2%

Question: What about the residual activity (PDGFRA (human)) of the same compound?
Answer: 94.1%

Question: What about the residual activity (PDPK1 (human)) of the same compound?
Answer: 80.3%

Question: What about the residual activity (PKN1 (human)) of the same compound?
Answer: 22.7%

Question: What about the residual activity (PNCK (human)) of the same compound?
Answer: 90.6%

Question: And the residual activity (PRKCI (human))?
Answer: 90.7%

Question: What about the residual activity (PRKCZ (human)) of the same compound?
Answer: 99.6%

Question: And the residual activity (PRKX (human))?
Answer: 95.5%

Question: What about the residual activity (PTK2B (human)) of the same compound?
Answer: 93.3%

Question: What about the residual activity (RET (human)) of the same compound?
Answer: 95.6%

Question: And the residual activity (SLK (human))?
Answer: 39.1%

Question: What about the residual activity (SRMS (human)) of the same compound?
Answer: 103%

Question: And the residual activity (SRPK3 (human))?
Answer: 92.5%

Question: And the residual activity (STK3 (human))?
Answer: 52%

Question: And the residual activity (STK38 (human))?
Answer: 99.1%

Question: What about the residual activity (SYK (human)) of the same compound?
Answer: 99.9%

Question: And the residual activity (WNK2 (human))?
Answer: 99.8%

Question: For `N#C/C(=C(/N)Sc1ccc(N)cc1)c1ccccc1C(F)(F)F`, which residual activity (ABL1 (human)) is on record?
Answer: 106%

Question: What about the residual activity (ACVRL1 (human)) of the same compound?
Answer: 106%

Question: What about the residual activity (AKT1 (human)) of the same compound?
Answer: 101%

Question: And the residual activity (AURKC (human))?
Answer: 97.5%

Question: And the residual activity (CDC42BPA (human))?
Answer: 103%

Question: And the residual activity (CDK6 CCND3 (human))?
Answer: 103%

Question: And the residual activity (CDK9 CCNK (human))?
Answer: 98%

Question: What about the residual activity (CHUK (human)) of the same compound?
Answer: 102%

Question: And the residual activity (CSK (human))?
Answer: 90.9%

Question: What about the residual activity (CSNK1G2 (human)) of the same compound?
Answer: 96.4%

Question: What about the residual activity (CSNK2A1 (human)) of the same compound?
Answer: 97.9%

Question: What about the residual activity (DCLK2 (human)) of the same compound?
Answer: 99.1%

Question: And the residual activity (DYRK1B (human))?
Answer: 99.6%

Question: And the residual activity (DYRK2 (human))?
Answer: 96.6%

Question: What about the residual activity (EGFR (human)) of the same compound?
Answer: 97.3%

Question: And the residual activity (EPHA1 (human))?
Answer: 100%

Question: And the residual activity (FGR (human))?
Answer: 101%

Question: What about the residual activity (GRK6 (human)) of the same compound?
Answer: 100%

Question: And the residual activity (HIPK1 (human))?
Answer: 107%

Question: And the residual activity (IRAK1 (human))?
Answer: 100%

Question: And the residual activity [1]?
Answer: 106%

Question: And the residual activity (JAK2 JH1 JH2 (human))?
Answer: 98.7%

Question: What about the residual activity (LTK (human)) of the same compound?
Answer: 100%

Question: What about the residual activity (MAP4K2 (human)) of the same compound?
Answer: 85.7%

Question: And the residual activity (MARK1 (human))?
Answer: 99.9%

Question: What about the residual activity (MST4 (human)) of the same compound?
Answer: 97.2%

Question: What about the residual activity (PDGFRA (human)) of the same compound?
Answer: 99.5%

Question: What about the residual activity (PDPK1 (human)) of the same compound?
Answer: 103%

Question: And the residual activity (PKN1 (human))?
Answer: 104%

Question: And the residual activity (PNCK (human))?
Answer: 98.9%

Question: What about the residual activity (PRKCI (human)) of the same compound?
Answer: 102%

Question: And the residual activity (PRKCZ (human))?
Answer: 106%

Question: And the residual activity (PRKX (human))?
Answer: 98.9%

Question: What about the residual activity (PTK2B (human)) of the same compound?
Answer: 105%

Question: And the residual activity (RET (human))?
Answer: 101%

Question: And the residual activity (SLK (human))?
Answer: 102%

Question: What about the residual activity (SRMS (human)) of the same compound?
Answer: 105%

Question: What about the residual activity (SRPK3 (human)) of the same compound?
Answer: 96.3%

Question: And the residual activity (STK3 (human))?
Answer: 125%

Question: And the residual activity (STK38 (human))?
Answer: 93.1%

Question: And the residual activity (SYK (human))?
Answer: 99.3%

Question: What about the residual activity (WNK2 (human)) of the same compound?
Answer: 109%
